Here are results for 24 molecules from patent publication US8053583B2, “Anti-cancer compound and manufacturing method thereof” (National Defense Medical Center, priority 2008, dated 2011).

In data set [1] the test system is GBM 8401 (human brain glioblastoma) cells. As to the kind of experiment: MTT colorimetric assay, GBM 8401 cells. The settings on record: for viability at 10 µM: Homo sapiens, read-out: Cell viability (%) GBM 8401, conc. 10 μM; for inhibition of proliferation of tumor cells GBM 8401 (in words): primary screening, 10 μM, criterion viability less than 80%. Background: Tetrazolium dyes change colour on reduction, which living cells bring about.
From the text: (§1) MTT (tetrazole) assay used to determine tumor viability is based on measurement of the activity of dehydrogenase to determine cell growth conditions. In live cells, dehydrogenase in active mitochondria converts yellow MTT [3-(4,5-dimethylthiazol-2-yl)-2,5-diphenyltetra zolium bromide] into purple formazan on the reductive cleavage of its tetrazolium ring. The formazan crystal is examined under the microscope. While the mitochondria in dead cells are without active dehydrogenase, no crystal is generated and the color remains yellow. After adding MTT into cell cultures and reacting for 2 hours, the amount of generated formazan precipitate is proportional to total amount of dehydrogenase. Removing the culture medium, add DMSO to dissolve the purple formazan precipitate. Then measure the absorbance of the precipitate by is measured by the spectrophotometer at 560/670 nm so as to learn inhibition effect of drugs acted on normal cells and tumor cells.
(§2) GBM 8401, GBM 8901 (human brain glioblastoma) and SVG p12 (human brain astroglia)cells line are selected to be used in 96 well petri dishes. Each well is filled into the same amount of cells-about 5000 cells per well. After being cultured for 24 hours and cells anchor/attach, the 96 wells are divided into two groups-an experimental group and a control group containing no samples. The samples are diluted into 10 μg/mL by culture medium. Take 200 μL of each sample and add into the experimental group and the control group is added with 200 μL culture medium without samples. After 46 hours of culture, each well is added with 10 μL MTT solution, incubate cells at 37° C., 5% CO2 for 2 hours.
(§3) Then each well is added with 100 μL, dissolving formazan. Shaking for 10 minutes and measure the absorbance at 560/670 nm of the sample by the spectrometer. The data of the experimental group is divided by the data of the control group to get the estimated cell viability.
(§4) Three cell lines-GBM 8401, GBM 8901, SVG p12 (normal) are used in cytotoxicity tests of 1,8-bis-substituted amidoanthraquinone. After reacting with the drug for 46 hours, the cells are reacted with certain amount of MTT solution. After 2 hours, DMSO is used to dissolve formazan and O.D. (optical density) at 560/670 nm is measured. Then calculate the radios of the experimental groups (with drugs) to the control groups (without drugs).

Data set [2] concerns GBM 8901 (human brain glioblastoma) cells. As to the kind of experiment: MTT colorimetric assay, GBM 8901 cells. As to conditions: for viability at 10 µM: Homo sapiens, read-out: Cell viability (%) GBM 8901, conc. 10 μM; for inhibition of growth of tumor cells GBM 8901 (in words): primary screening, 10 μM, criterion viability less than 80%.
From the text: as §1, §2, §3, §4
Data set [3] can be described thus: MTT colorimetric assay, normal SVG p12 cells. The settings on record: human, SVG p12 cells (normal human brain astroglia), Cell viability (%) SVG p12, conc. 10 μM, 46 hours with drug, then 2 hours MTT, ratio to control group without drug.
From the text: as §1, §2, §3, §4
[4] abbreviates: 46 hours with drug, then 2 hours MTT, ratio to control group without drug.
The mark [5] stands for this setting: conc. 10 μM, 46 hours with drug, then 2 hours MTT, ratio to control group without drug.

As usually defined, the melting point is the temperature, or range, at which the solid turns liquid. Usually viability stands for a read-out of living cells in per cent, often relative to untreated cells.

“Also recorded” adds a separate entry of the source.

Consider `CC(C)NCCC(=O)Nc1cccc2c1C(=O)c1c(NC(=O)CCNC(C)C)cccc1C2=O` [Compound 4i], for which the melting point fell in the range of 105 to 106 °C. In addition, in data set [1] (setting [4]), the viability at 10 µM is 2 ± 1%. Besides, in data set [2] (setting [4]), the viability at 10 µM is 8 ± 2%. For the same molecule, the viability at 46 h, 10 μM in data set [3] is 5 ± 1%.

The molecule `COC(=O)CNCC(=O)Nc1cccc2c1C(=O)c1c(NC(=O)CNCC(=O)OC)cccc1C2=O` [Compound 3a, 1,8-Bis[2-(glycinmethyl ester)acetamido]anthraquinone] showed a melting point of 173 to 174 °C. Besides, the viability at 10 µM in data set [1] (setting [4]) came to 95 ± 10%. The viability at 10 µM in data set [2] (setting [4]) stood at 104 ± 2%. The viability at 46 h, 10 μM in data set [3] stood at 93 ± 6%.

On to `CCCN(CCC)CC(=O)Nc1cccc2c1C(=O)c1c(NC(=O)CN(CCC)CCC)cccc1C2=O` [Compound 3n, 1,8-Bis[2-(dipropylamino)acetamido]anthraquinone], for which the values for the viability at 10 µM in data set [1] (setting [4]) and in data set [2] (setting [4]) were 106 ± 24% and 73 ± 5%, respectively. Moreover, the “inhibition of growth of tumor cells GBM 8901 (in words)” value (“inhibition of growth … (in words)” below) in data set [2] was “inhibit growth”. The viability at 46 h, 10 μM in data set [3] came out at 73 ± 30%.

On to `CN(C)CCC(=O)Nc1cccc2c1C(=O)c1c(NC(=O)CCN(C)C)cccc1C2=O` [Compound 4f], for which the melting point lay in the range of 116 to 117 °C. The viability at 10 µM in data set [1] (setting [4]) is 3%. Moreover, the viability at 10 µM in data set [2] (setting [4]) turned out to be 7 ± 3%. Besides, in data set [3], the viability at 46 h, 10 μM came out at 4 ± 3%.

Take `CC(C)(C)OC(=O)NCCNCCC(=O)Nc1cccc2c1C(=O)c1c(NC(=O)CCNCCNC(=O)OC(C)(C)C)cccc1C2=O` [Compound 4d, 1,8-Bis[2-(N-Boc-ethanediamino)propionamido]anthraquinone]: the melting point is 101 to 102 °C. Moreover, the viability at 10 µM in data set [1] (setting [4]) stood at 10 ± 5%. Also, the viability at 10 µM in data set [2] (setting [4]) turned out to be 4%. In addition, in data set [3], the viability at 46 h, 10 μM is 8 ± 1%.

With `CCNCC(=O)Nc1cccc2c1C(=O)c1c(NC(=O)CNCC)cccc1C2=O` [Compound 3p, 1,8-Bis[2-(ethanamino)acetamido]anthraquinone], the viability at 10 µM in data set [1] (setting [4]) amounted to 2 ± 1%; in data set [2] (setting [4]), 4 ± 1%. Moreover, the “inhibition of proliferation of tumor cells GBM 8401 (in words)” value (“inhibition of proliferation … (in words)” below) in data set [1] is recorded as “inhibit proliferation; also recorded: quite good inhibition effects”. Further, the “inhibition of growth … (in words)” value in data set [2] is “inhibit growth”. For the same molecule, in data set [3], the viability at 46 h, 10 μM came to 3 ± 1%.

Turning to `CC(C)CNCCC(=O)Nc1cccc2c1C(=O)c1c(NC(=O)CCNCC(C)C)cccc1C2=O` [Compound 4b, 1,8-Bis[3-(isobutylamino)propionamido]anthraquinone], the melting point fell in the range of 224 to 225 °C. Besides, the viability at 10 µM in data set [1] (setting [4]) was found to be 4 ± 1%. The viability at 10 µM in data set [2] (setting [4]) turned out to be 7 ± 3%. Also, in data set [3], the viability at 46 h, 10 μM worked out at 4%.

In turn, `CCN(CC)CCC(=O)Nc1cccc2c1C(=O)c1c(NC(=O)CCN(CC)CC)cccc1C2=O` [Compound 4a, 1,8-Bis[3-(diethylamino)propionamido]anthraquinone] yielded a melting point of 160 to 161 °C. Moreover, the viability at 10 µM in data set [1] (setting [4]) came to 4%. Also, the viability at 10 µM in data set [2] (setting [4]) was found to be 3 ± 2%. Also, the viability at 46 h, 10 μM in data set [3] worked out at 3%.

Regarding “(S)-1,8-Bis[2-(phenylglycin methyl ester)acetamido]anthraquinone [Compound 3j]”, in data set [1], the “inhibition of proliferation … (in words)” value was “inhibit proliferation; also recorded: quite good inhibition effects”. Further, the “inhibition of growth … (in words)” value in data set [2] is recorded as “inhibit growth”.

`COC(=O)CN(C)CC(=O)Nc1cccc2c1C(=O)c1c(NC(=O)CN(C)CC(=O)OC)cccc1C2=O` [Compound 3f, 1,8-Bis[2-(sacrocinemethyl ester)acetamido]anthraquinone] showed a melting point of 129 to 130 °C. In data set [1] (setting [4]), the viability at 10 µM came to 130 ± 20%. For the same molecule, the viability at 10 µM in data set [2] (setting [4]) came to 107 ± 5%. For the same molecule, the viability at 46 h, 10 μM in data set [3] is 172 ± 2%.

In turn, `O=C(CCNCc1cc(F)cc(F)c1)Nc1cccc2c1C(=O)c1c(NC(=O)CCNCc3cc(F)cc(F)c3)cccc1C2=O` [Compound 4c, 1,8-Bis[3-(3,5-difluorobenzylamino)propionamido]anthraquinone] showed a melting point of 190 to 191 °C. Besides, the viability at 10 µM in data set [1] (setting [4]) came out at 14 ± 1%. For the same molecule, in data set [2] (setting [4]), the viability at 10 µM is 11 ± 9%. The viability at 46 h, 10 μM in data set [3] was greater than 80%.

`O=C(CNCc1cccc(C(F)(F)F)c1)Nc1cccc2c1C(=O)c1c(NC(=O)CNCc3cccc(C(F)(F)F)c3)cccc1C2=O` [Compound 3q, 1,8-Bis [2-(3-(trifluoromethyl)benzylamino)acetamido]anthraquinone] gave a melting point of 190 to 191 °C. Also, in data set [1] (setting [4]), the viability at 10 µM came to 120 ± 26%. Besides, the viability at 10 µM in data set [2] (setting [4]) turned out to be 83 ± 10%. The viability at 46 h, 10 μM in data set [3] is 135 ± 20%.

`COC(=O)[C@@H](NCC(=O)Nc1cccc2c1C(=O)c1c(NC(=O)CN[C@@H](C(=O)OC)C(C)C)cccc1C2=O)C(C)C` [Compound 3d, (L)-1,8-Bis[2-(valinemethyl ester)acetamido]anthraquinone]: the melting point was in the range of 150 to 151 °C. In addition, in data set [1] (setting [4]), the viability at 10 µM was determined as 99 ± 40%. Moreover, in data set [2] (setting [4]), the viability at 10 µM worked out at 97 ± 22%. Also, the viability at 46 h, 10 μM in data set [3] amounted to 87 ± 7%.

Turning to `CN(C)CC(=O)Nc1cccc2c1C(=O)c1c(NC(=O)CN(C)C)cccc1C2=O` [Compound 3m, 1,8-Bis[2-(dimethylamino)acetamido]anthraquinone], the viability at 10 µM in data set [1] (setting [4]) turned out to be 60 ± 5%; in data set [2] (setting [4]), 84 ± 9%. For the same molecule, the “inhibition of proliferation … (in words)” value in data set [1] is reported as “inhibit proliferation; also recorded: quite good inhibition effects”. In addition, the viability at 46 h, 10 μM in data set [3] was greater than 80%.

`CCN(C)CC(=O)Nc1cccc2c1C(=O)c1c(NC(=O)CN(C)CC)cccc1C2=O` [Compound 3r, 1,8-Bis[2-(ethylmethylamino)acetamido]anthraquinone] showed a melting point of 186 to 187 °C. Moreover, the viability at 10 µM in data set [1] (setting [4]) was found to be 90 ± 2%. In addition, the viability at 10 µM in data set [2] (setting [4]) was found to be 98 ± 12%. The viability at 46 h, 10 μM in data set [3] was 125 ± 7%.

As for `CC(C)NCC(=O)Nc1cccc2c1C(=O)c1c(NC(=O)CNC(C)C)cccc1C2=O` [Compound 3o, 1,8-Bis[2-(isopropylamino)acetamido]anthraquinone], the results for the viability at 10 µM in data set [1] (setting [4]) and in data set [2] (setting [4]) were 4 ± 1% and 5 ± 1%, respectively. Also, the “inhibition of proliferation … (in words)” value in data set [1] is “inhibit proliferation; also recorded: quite good inhibition effects”. In addition, in data set [2], the “inhibition of growth … (in words)” value is on record as “inhibit growth”. For the same molecule, the viability at 46 h, 10 μM in data set [3] was determined as 4 ± 1%.

Regarding `COC(=O)[C@H](C)NCC(=O)Nc1cccc2c1C(=O)c1c(NC(=O)CN[C@H](C)C(=O)OC)cccc1C2=O` [Compound 3i, (D)-1,8-Bis[2-(alalinemethyl ester)acetamido]anthraquinone], in data set [1] (setting [5]), the “Cell viability (%) GBM 8401” value is given as 64 ± 13%. The “inhibition of proliferation … (in words)” value in data set [1] is recorded as “inhibit proliferation; also recorded: quite good inhibition effects”. Besides, the “Cell viability (%) GBM 8901” value in data set [2] (setting [5]) was determined as 99 ± 11%.

`CCN(CC)CC(=O)Nc1cccc2c1C(=O)c1c(NC(=O)CN(CC)CC)cccc1C2=O` [Compound 3l, 1,8-Bis[2-(diethylamino)acetamido]anthraquinone] yielded a melting point of 228 to 229 °C. The viability at 10 µM in data set [1] (setting [4]) amounted to 91 ± 17%. For the same molecule, the viability at 10 µM in data set [2] (setting [4]) worked out at 94 ± 26%. Also, the viability at 46 h, 10 μM in data set [3] was determined as 123 ± 13%.

`CN(C)CCCNCCC(=O)Nc1cccc2c1C(=O)c1c(NC(=O)CCNCCCN(C)C)cccc1C2=O` [Compound 4j, 1,8-Bis[2-(dimethylpropanediamino)propionamido]anthraquinone] registered a melting point of 107 to 108 °C. Also, the viability at 10 µM in data set [1] (setting [4]) amounted to 9 ± 2%. Further, the viability at 10 µM in data set [2] (setting [4]) came to 22 ± 9%. The viability at 46 h, 10 μM in data set [3] stood at 33 ± 16%.

Molecule `CCCN(CCC)CCC(=O)Nc1cccc2c1C(=O)c1c(NC(=O)CCN(CCC)CCC)cccc1C2=O` [Compound 4g] gave a melting point of 129 to 130 °C. The viability at 10 µM in data set [1] (setting [4]) was found to be 5 ± 1%. In addition, the viability at 10 µM in data set [2] (setting [4]) was 8 ± 2%. Also, in data set [3], the viability at 46 h, 10 μM stood at 4%.

Turning to `COC(=O)[C@H]1CCCN1CC(=O)Nc1cccc2c1C(=O)c1c(NC(=O)CN3CCC[C@H]3C(=O)OC)cccc1C2=O` [Compound 3c, 1,8-Bis[2-(prolinemethyl ester)acetamido]anthraquinone], the melting point lay in the range of 170 to 171 °C. Further, the viability at 10 µM in data set [1] (setting [4]) was found to be 83 ± 15%. In addition, the viability at 10 µM in data set [2] (setting [4]) is 96 ± 3%. The viability at 46 h, 10 μM in data set [3] was 121 ± 5%.

In turn, `CCN(C)CCC(=O)Nc1cccc2c1C(=O)c1c(NC(=O)CCN(C)CC)cccc1C2=O` [Compound 4k] came in with a melting point of 129 to 130 °C. In data set [1] (setting [4]), the viability at 10 µM worked out at 1 ± 3%. Besides, the viability at 10 µM in data set [2] (setting [4]) is 7 ± 3%. The viability at 46 h, 10 μM in data set [3] was 2%.

As for `COC(=O)[C@H](COC(C)(C)C)NCC(=O)Nc1cccc2c1C(=O)c1c(NC(=O)CN[C@H](COC(C)(C)C)C(=O)OC)cccc1C2=O` [Compound 3t, 1,8-Bis[2-(tert-butyl-serinemethyl ester)acetamido]anthraquinone], the figures for the viability at 10 µM in data set [1] (setting [4]) and in data set [2] (setting [4]) were 98 ± 19% and 69 ± 4%, respectively. For the same molecule, in data set [2], the “inhibition of growth … (in words)” value is given as “inhibit growth”. The viability at 46 h, 10 μM in data set [3] is greater than 80%.

Regarding `CC(C)CNCC(=O)Nc1cccc2c1C(=O)c1c(NC(=O)CNCC(C)C)cccc1C2=O` [Compound 3k, 1,8-Bis[2-(isobutylamino)acetamido]anthraquinone], the viability at 10 µM was found to be 95 ± 12% in data set [1] (setting [4]) and 57 ± 16% in data set [2] (setting [4]). In addition, the “inhibition of growth … (in words)” value in data set [2] is listed as “inhibit growth”.
